Read-outs that look alike come from different tables or passages of the source.
How the values were obtained:
Type in all cases: cell-based
[1] = tested on: Huh-7 cells containing HCV Coni subgenomic replicon (GS4.1 cells); assay: HCV replicon assay; conditions: GS4.1 cells, 72 hours incubation, NS4A expression by ELISA, read-out: HCV Replicon EC50
Method: (§1) Huh-7 cells containing HCV Coni subgenomic replicon (GS4.1 cells), (C. Seeger; Fox Chase University, Philadelphia, Pa., USA), are grown in Dulbecco's Modified Eagle Medium (DMEM) supplemented with 10% fetal bovine serum (FBS), 2 mM L-glutamine, 110 mg/L sodium pyruvate, 1× non-essential amino acids, 100 U/mL penicillin-streptomycin and 0.5 mg/mL G418 (Invitrogen). For dose-response testing, the cells are seeded in 96-well plates at 7.5×10^3 cells/well in a volume of 50 μL and incubated at 37° C./5% CO2. Three hours after plating, 50 μL of ten 2-fold serial dilutions of compounds (highest concentration, 75 μM) are added and cell cultures were incubated at 37° C./5% CO2 in the presence of 0.5% DMSO. Alternatively, compounds are tested at a single concentration of 15 μM. In all cases, Huh-7 cells lacking the HCV replicon served as negative control. The cells are incubated in the presence of compounds for 72 hours after which they were monitored for expression of the NS4A protein by enzyme-linked immunosorbent assay (ELISA). For this, the plates were then fixed for 1 min with 1:1 acetone:methanol, washed twice with phosphate-buffered saline (PBS), 0.1% Tween 20, blocked for 1 hour at room temperature with TNE buffer containing 10% FBS and then incubated for 2 h at 37° C. with the anti-NS4A mouse monoclonal antibody A-236 (ViroGen) diluted in the same buffer. After washing three times with PBS, 0.1% Tween 20, the cells are incubated 1 hour at 37° C. with anti-mouse immunoglobulin G-peroxidase conjugate in TNE, 10% FBS. After washing as described above, the reaction is developed with O-phenylenediamine (Zymed). The reaction is stopped after 30 minutes with […] and the absorbance is read at 492 nm using a Sunrise Tecan spectrophotometer. EC50 values are determined from the % inhibition versus concentration data using a sigmoidal non-linear regression analysis based on four parameters with Tecan Magellan software. When screening at a single concentration, the results are expressed as % inhibition at 15 μM. For cytotoxicity evaluation, GS4.1 cells are treated with compounds as described above and cellular viability was monitored using a Cell Titer 96 AQueous One Solution Cell Proliferation Assay (Promega). CC50 values are determined from the % cytotoxicity versus concentration data with Tecan Magellan software as described above.
Compounds presented in the table below were assayed according to the replicon assay described above.

GS4.1 cells = assay: Cytotoxicity evaluation in GS4.1 cells (Cell Titer 96 AQueous One Solution Cell Proliferation Assay); conditions: cellular viability, treated as in replicon assay, read-out: HCV Replicon CC50
Method: as §1

[2] = as above; conditions: human, cellular viability, treated as in replicon assay, read-out: HCV Replicon CC50
Method: as §1

SMILES | EC50 [1] | CC50 (GS4.1 cells) | EC50 ([1]; Hepatitis C virus, Huh-7, 72 h) | CC50 at 72 h [2]
CCOC(=O)[C@@H](CC(C)C)NP(=O)(N[C@H](CC(C)C)C(=O)OCC)OC[C@H]1O[C@@H](n2cnc3c(OC)nc(N)nc32)C(C)(O)C1O (stereo partly drawn) [Compound 66] | 100 to 1000 nM | ≤ 75000 nM | – | –
CCOC(=O)[C@H](Cc1ccccc1)NP(=O)(N[C@@H](Cc1ccccc1)C(=O)OCC)OC[C@H]1O[C@@H](n2cnc3c(N4CCOCC4)nc(N)nc32)C(C)(O)C1O (stereo partly drawn) [Compound 71] | – | – | < 100 nM | > 75000 nM
CCOC(=O)[C@@H](NP(=O)(N[C@H](C(=O)OCC)C(C)C)OC[C@H]1O[C@@H](n2cnc3c(N4CCOCC4)nc(N)nc32)C(C)(O)C1O)C(C)C (stereo partly drawn) [Compound 72] | – | – | 100 to 1000 nM | > 75000 nM
COc1nc(N)nc2c1ncn2[C@@H]1O[C@H](COP(N)(=O)OCCSC(=O)C(C)(C)CO)C(O)C1(C)O (stereo partly drawn) [Compound 73] | – | – | 100 to 1000 nM | > 75000 nM
CCOC(=O)CCNP(=O)(OCCSC(=O)C(C)(C)CO)OC[C@H]1O[C@@H](n2cnc3c(OC)nc(N)nc32)C(C)(O)C1O (stereo partly drawn) [Compound 74] | – | – | 100 to 1000 nM | > 75000 nM
CC(C)NP(=O)(OCCSC(=O)C(C)(C)CO)OC[C@H]1O[C@@H](n2cnc3c(NC4CC4)nc(N)nc32)C(C)(O)C1O (stereo partly drawn) [Compound 75] | – | – | 100 to 1000 nM | > 75000 nM
CCOC(=O)CCNP(=O)(OCCSC(=O)C(C)(C)CO)OC[C@H]1O[C@@H](n2cnc3c(NC4CC4)nc(N)nc32)C(C)(O)C1O (stereo partly drawn) [Compound 76] | – | – | 100 to 1000 nM | > 75000 nM
CCOC(=O)[C@@H](NP(=O)(N[C@H](C(=O)OCC)C(C)C)OC[C@H]1O[C@@H](n2cnc3c(SC)nc(N)nc32)C(C)(O)C1O)C(C)C (stereo partly drawn) [Compound 77] | – | – | 100 to 1000 nM | > 75000 nM
CN(N)c1nc(N)nc2c1ncn2[C@@H]1O[C@H](COP(=O)(NCc2ccccc2)OCCSC(=O)C(C)(C)CO)C(O)C1(C)O (stereo partly drawn) [Compound 78] | – | – | 100 to 1000 nM | > 75000 nM
CC(C)NP(=O)(OCCSC(=O)C(C)(C)CO)OC[C@H]1O[C@@H](n2cnc3c(Cl)nc(N)nc32)C(C)(O)C1O (stereo partly drawn) [Compound 79] | – | – | < 100 nM | ≤ 75000 nM
CCOC(=O)[C@H](CC(C)C)NP(=O)(N[C@@H](CC(C)C)C(=O)OCC)OC[C@H]1O[C@@H](n2ccc(=O)[nH]c2=O)C(C)(O)C1O (stereo partly drawn) [Compound 80] | – | – | 1000 to 10000 nM | > 75000 nM
C#CC1(F)C(O)[C@@H](COP(=O)(N[C@@H](CC(C)C)C(=O)OCC)N[C@H](CC(C)C)C(=O)OCC)O[C@H]1n1cnc2c(NC3CC3)nc(N)nc21 (stereo partly drawn) [Compound 81] | – | – | 1000 to 10000 nM | ≤ 75000 nM

— patent US9243025B2, “Compounds and pharmaceutical compositions for the treatment of viral infections” (Idenix Pharmaceuticals, LLC, priority 2011, dated 2016)
